Reference: the supplement of paper PMC10307832

What was measured:
Experiment in all cases: relative viability (nuclei count vs DMSO), 5 days (fraction); higher = more cells survive
Tosedostat + Decitabine = compound: CC(C)C[C@@H](C(=O)N[C@H](C(=O)OC1CCCC1)c1ccccc1)[C@H](O)C(=O)NO [Tosedostat] + Nc1ncn([C@H]2C[C@H](O)[C@@H](CO)O2)c(=O)n1 [Decitabine] (partner 2 µM)
Method in brief: (§1)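 Values are medians from duplicate plates. Each reflects relative viability, defined as the nuclei count of treated wells over that of vehicle wells. Lung cancer cell lines in 1536-well plates were pin-tool dosed one day after seeding with one drug alone or with a fixed anchor-drug dose plus five library-drug doses (not always all listed) in √10 steps, then fixed, stained and imaged at 4× after 5 days.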

Tosedostat + Vorinostat = compound: CC(C)C[C@@H](C(=O)N[C@H](C(=O)OC1CCCC1)c1ccccc1)[C@H](O)C(=O)NO [Tosedostat] + O=C(CCCCCCC(=O)Nc1ccccc1)NO [Vorinostat] (partner 1 µM)
Method in brief: as §1

[1] = compound: CC1=NN=C(O1)C2=NN=C(C=C2)N3CCC(CC3)OC4=C(C=CC(=C4)F)Cl + CS(=O)(=O)CCNCc1ccc(-c2ccc3ncnc(Nc4ccc(OCc5cccc(F)c5)c(Cl)c4)c3c2)o1 [Lapatinib] (partner 2 µM)
Method in brief: as §1

[2] = compound: CC1=NN=C(O1)C2=NN=C(C=C2)N3CCC(CC3)OC4=C(C=CC(=C4)F)Cl + Cc1nc(NC(=O)N2CCC[C@H]2C(N)=O)sc1-c1ccnc(C(C)(C)C(F)(F)F)c1 [Alpelisib] (partner 2 µM)
Method in brief: as §1

| Cell Line | relative viability (Tosedostat + Decitabine; first compound 0.02 µM) | relative viability (Tosedostat + Decitabine; first compound 0.06325 µM) | relative viability (Tosedostat + Decitabine; first compound 0.2 µM) | relative viability (Tosedostat + Decitabine; first compound 0.6325 µM) | relative viability (Tosedostat + Decitabine; first compound 2 µM) | relative viability (Tosedostat + Vorinostat; first compound 0.02 µM) | relative viability (Tosedostat + Vorinostat; first compound 0.06325 µM) | relative viability (Tosedostat + Vorinostat; first compound 0.2 µM) | relative viability (Tosedostat + Vorinostat; first compound 0.6325 µM) | relative viability (Tosedostat + Vorinostat; first compound 2 µM) | relative viability ([1]; first compound 0.253 µM) | relative viability ([1]; first compound 0.8 µM) | relative viability ([1]; first compound 2.53 µM) | relative viability ([1]; first compound 8 µM) | relative viability ([2]; first compound 0.253 µM) | relative viability ([2]; first compound 0.8 µM) | relative viability ([2]; first compound 2.53 µM) | relative viability ([2]; first compound 8 µM) |
| --- | --- | --- | --- | --- | --- | --- | --- | --- | --- | --- | --- | --- | --- | --- | --- | --- | --- | --- |
| HCC-827 | 0.317 | 0.331 | 0.289 | 0.26 | 0.314 | 0.545 | 0.94 | 0.861 | 0.73 | 0.718 | 0.201 | 0.197 | 0.176 | 0.2 | 0.492 | 0.358 | 0.492 | 0.476 |
| HOP-62 | 0.227 | 0.203 | 0.258 | 0.159 | 0.186 | 0.819 | 0.516 | 0.612 | 0.561 | 0.372 | 0.799 | – | 0.523 | 0.684 | 0.791 | – | 0.609 | 0.505 |
| IA-LM | – | – | – | – | – | 1.09 | 0.844 | 0.791 | 0.899 | 0.878 | 0.283 | 0.241 | 0.257 | 0.275 | 0.156 | 0.157 | 0.137 | 0.157 |
| LC-2-ad | 0.777 | 0.776 | 0.83 | 0.746 | 0.811 | 0.835 | 0.702 | 0.7 | 0.688 | 0.512 | 0.291 | 0.271 | 0.335 | 0.262 | 0.429 | 0.371 | 0.382 | 0.341 |
| LCLC-97TM1 | 0.186 | 0.234 | 0.212 | 0.207 | 0.184 | 0.682 | 0.602 | 0.533 | 0.532 | 0.47 | 0.827 | – | 0.553 | 0.687 | 0.28 | – | 0.237 | 0.292 |
| LCLC-103H | 0.792 | 0.745 | 0.728 | 0.763 | 0.76 | 0.787 | 0.773 | 0.761 | 0.776 | 0.784 | – | – | – | – | 0.792 | 0.946 | 0.775 | 0.776 |
| LK-2 | 0.305 | 0.306 | 0.237 | 0.262 | 0.272 | 0.34 | 0.364 | 0.24 | 0.266 | 0.251 | 0.982 | 0.945 | 0.947 | 0.818 | 1.03 | 1.01 | 1.17 | 1.23 |
| LOU-NH91 | 0.82 | 0.797 | 0.806 | 0.726 | 0.74 | 0.983 | 0.932 | 0.898 | 0.764 | 0.693 | – | 0.7 | 0.717 | 0.687 | – | 0.649 | 0.713 | 0.726 |
| LU99A | 0.906 | 0.769 | 0.909 | 0.744 | 0.693 | 0.573 | 0.583 | 0.445 | 0.388 | 0.381 | 1.02 | 0.952 | 0.978 | 0.816 | 0.547 | 0.526 | 0.559 | 0.495 |
| LXF-289 | 0.409 | 0.392 | 0.365 | 0.387 | 0.328 | 0.818 | 0.716 | 0.822 | 0.703 | 0.771 | 0.643 | 0.672 | 0.696 | 0.584 | 0.783 | 0.789 | 0.744 | 0.67 |
